Source: patent US8592610B2, “Spiroheterocyclic tetronic acid derivatives” (Bayer CropScience AG, priority 2009, dated 2013)

Columns and labels:
[1] = tested on: green peach aphid (Myzus persicae); assay: Myzus test (MVZUPE spray treatment); type: in vivo; conditions: after 6 days, Chinese cabbage leaf discs
Description: (§1) To produce a suitable preparation of active compound, one part by weight of active compound is mixed with the stated amounts of solvents and emulsifier, and the concentrate is diluted with emulsifier-containing water to the desired concentration.
Discs of Chinese cabbage leaves (Brassica pekinensis) which are infested by all stages of the green peach aphid (Myzus persicae) are sprayed with an active compound preparation of the desired concentration.
(§2) After 6 days, the effect in percent is determined. 100% means that all aphids have been killed; 0% means that none of the aphids have been killed.

[2] = tested on: larvae of the mustard beetle (Phaedon cochleariae); assay: Phaedon test (PHAECO spray treatment); type: in vivo; conditions: application rate 500 g/ha, after 7 days, Chinese cabbage leaf discs
Description: [table] To produce a suitable preparation of active compound, one part by weight of active compound is mixed with the stated amounts of solvents and emulsifier, and the concentrate is diluted with emulsifier-containing water to the desired concentration. Discs of Chinese cabbage leaves (Brassica pekinensis) are sprayed with an active compound preparation of the desired concentration and, after drying, populated with larvae of the mustard beetle (Phaedon cochleariae).

[3] = log P determination by LC-MS in the acidic range (HCOOH); type: physicochemical; conditions: LC-MS column with aqueous formic acid/acetonitrile gradient, pH 2.7, 0.1% aqueous formic acid and acetonitrile
Description: The LC-MS determination in the acidic range is carried out at pH 2.7 using 0.1% aqueous formic acid and acetonitrile (contains 0.1% formic acid) as mobile phases; linear gradient from 10% acetonitrile to 95% acetonitrile.
Calibration is carried out using unbranched alkan-2-ones (with 3 to 16 carbon atoms) with known log P values (determination of the log P values by the retention times using linear interpolation between two successive alkanones).

[4] = tested on: caterpillars of the armyworm (Spodoptera frugiperda); assay: Spodoptera frugiperda test (SPODFR spray treatment); type: in vivo; conditions: after 6 days, maize leaf discs
Description: as §1
Discs of maize leaves (Zea mays) are sprayed with an active compound preparation of the desired concentration and, after drying, populated with caterpillars of the armyworm (Spodoptera frugiperda).
as §2

CCON1CCC2(CC1)OC(=O)C(c1cc(-c3ccc(Cl)cc3)ccc1C)=C2O [I-a-13]
activity (aphids killed) ([1]; application rate 500 g/ha): 100%
activity (beetle larvae killed) [2]: 100%

CCOC(=O)C1(O)CCN(OC)CC1 [XIV-1]
chromatographic logP [3]: 0.94

CCOC(=O)C1(OC(=O)Cc2c(C)cc(C)cc2C)CCN(OC)CC1 [II-1]
chromatographic logP [3]: 4.28

CON1CCC2(CC1)OC(=O)C(c1c(C)ccc(-c3ccc(Cl)cc3)c1C)=C2O [I-a-5]
activity (aphids killed) ([1]; application rate 100 g/ha): 100%
activity (killed) ([4]; application rate 500 g/ha): ≥ 80%

CON1CCC2(CC1)OC(=O)C(c1c(C)ccc(-c3ccc(F)cc3)c1C)=C2O [I-a-9]
activity (aphids killed) ([1]; application rate 500 g/ha): 100%

CCc1cc(C)cc(C)c1C1=C(O)C2(CCN(OC)CC2)OC1=O [I-a-3]
activity (aphids killed) ([1]; application rate 500 g/ha): 100%

CCOC(=O)C1(O)CCN(OCC)CC1 [XIV-2]
chromatographic logP [3]: 1.16

CCc1cc(-c2ccc(Cl)cc2)cc(C)c1C1=C(O)C2(CCN(OC)CC2)OC1=O [I-a-6]
activity (beetle larvae killed) [2]: 100%

CON1CCC2(CC1)OC(=O)C(c1cc(-c3ccc(Cl)cc3)ccc1C)=C2O [I-a-4]
activity (aphids killed) ([1]; application rate 500 g/ha): 100%
activity (beetle larvae killed) [2]: 100%

CCc1cc(C)cc(CC)c1C1=C(O)C2(CCN(OC)CC2)OC1=O [I-a-10]
activity (aphids killed) ([1]; application rate 500 g/ha): 100%

CON1CCC2(CC1)OC(=O)C(c1c(C)cc(C)cc1C)=C2O [I-a-1]
chromatographic logP [3]: 2.15

CCON1CCC2(CC1)OC(=O)C(c1c(C)ccc(-c3ccc(Cl)cc3)c1C)=C2O [I-a-12]
activity (aphids killed) ([1]; application rate 500 g/ha): 100%
activity (killed) ([4]; application rate 100 g/ha): ≥ 100%

CCON1CCC2(CC1)OC(=O)C(c1c(CC)cc(C)cc1CC)=C2O [I-a-11]
activity (aphids killed) ([1]; application rate 500 g/ha): 100%

CCON1CCC2(CC1)OC(=O)C(c1c(C)cc(C)cc1C)=C2O [I-a-7]
activity (aphids killed) ([1]; application rate 500 g/ha): 100%
